Here are results for 24 molecules from patent US20080051387A1, “TETRAHYDROPYRIDO[3,4-D]PYRIMIDINES AND RELATED ANALOGUES” (priority 2006, published 2008).

Read-outs that look alike come from different tables or passages of the source. Where only a bound is given, the exact number is not on record here.

The target of this experiment is T1, chimeric human H3 receptor (Homo sapiens, UniProt Q9Y5N1).
T1 construct: rat Galpha-i2 (Gnai2, rat); made in house; host or cells: Sf9 insect cells (baculovirus); P2 membranes
T1 sequence (Q9Y5N1 with tags, fused parts or gaps): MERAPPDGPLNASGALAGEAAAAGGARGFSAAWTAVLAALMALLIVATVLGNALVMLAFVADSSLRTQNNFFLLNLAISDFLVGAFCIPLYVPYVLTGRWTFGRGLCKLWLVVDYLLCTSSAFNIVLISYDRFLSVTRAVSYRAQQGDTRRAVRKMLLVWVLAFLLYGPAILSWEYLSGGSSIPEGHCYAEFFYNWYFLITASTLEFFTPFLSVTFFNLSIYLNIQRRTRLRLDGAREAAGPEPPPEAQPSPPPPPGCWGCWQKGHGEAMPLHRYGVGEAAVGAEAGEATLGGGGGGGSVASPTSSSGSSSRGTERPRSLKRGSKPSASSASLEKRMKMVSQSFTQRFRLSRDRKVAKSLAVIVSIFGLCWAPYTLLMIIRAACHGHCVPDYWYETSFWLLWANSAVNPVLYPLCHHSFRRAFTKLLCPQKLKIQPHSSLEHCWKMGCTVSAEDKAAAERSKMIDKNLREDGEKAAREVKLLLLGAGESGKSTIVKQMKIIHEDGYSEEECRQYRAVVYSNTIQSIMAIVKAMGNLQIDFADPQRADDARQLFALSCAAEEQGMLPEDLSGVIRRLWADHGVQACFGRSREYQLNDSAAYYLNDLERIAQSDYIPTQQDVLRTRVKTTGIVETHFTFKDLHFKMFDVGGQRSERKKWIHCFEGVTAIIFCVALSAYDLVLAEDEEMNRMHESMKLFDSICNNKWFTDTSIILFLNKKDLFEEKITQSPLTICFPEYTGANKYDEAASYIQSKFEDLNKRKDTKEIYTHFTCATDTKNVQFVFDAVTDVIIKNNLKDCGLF
Kind of experiment: Chimeric human H3 receptor screening GTP binding assay (inhibition of histamine-stimulated GTP-gamma35S binding, Example 8). It is filed as biochemical. The gist of the method:
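Sf9 membranes co-expressing chimeric human H3 receptor and heterotrimeric G-protein (35 μg protein) incubated 60 min at room temperature with 4 μM compound, 1 μM histamine and 125 pM GTP-gamma35S in pH 7.4 buffer with 10 μM GDP. Filter-bound radioactivity, nonspecific (10 μM GTP-gammaS) subtracted, reported as % inhibition of histamine signal.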
Background: GTPγS resists hydrolysis and so accumulates on activated G proteins.

Where [1] appears, read: symbol ! in Ki, test compound 4 μM, 1 μM histamine, read-out: percent inhibition of agonist-induced GTP-gammaS binding to H3.
The mark [2] stands for this setting: 1 h, assay described in Example 8, symbol "!" in column headed Ki, read-out: Ki ("!": percent inhibition of agonist-induced GTP-gammaS binding to H3).
Setting [3] is: 1 h, assay of Example 8, symbol "!" in column headed Ki, read-out: percent inhibition of agonist-induced GTP-gammaS binding to H3.

Consider `Cc1cc(C(=O)N2CCc3c(ncnc3N3CCN(C4CCC4)CC3)C2)nn1C` [Compound 39, 4-(4-cyclobutylpiperazin-1-yl)-7-[(1,5-dimethyl-1H-pyrazol-3-yl)carbonyl]-5,6,7,8-tetrahydropyrido[3,4-d]pyrimidine], for which, under setting [1], the inhibition (as a rule, the drop in the measured response relative to a control, in per cent) at 4 µM was at least 90%.

Turning to `CCCCCN1CCc2ncnc(N3CCN(C4CCC4)CC3)c2CC1` [Compound 164, 4-(4-cyclobutylpiperazin-1-yl)-7-pentyl-6,7,8,9-tetrahydro-5H-pyrimido[4,5-d]azepine], the inhibition at 4 µM under setting [1] was at least 90%.

As for `CC(c1cnc2ccccc2c1)N1CCc2c(ncnc2N2CCN(C3CCC3)CC2)C1` (stereo not drawn) [Compound 109, 4-(4-cyclobutylpiperazin-1-yl)-7-(1-quinolin-3-ylethyl)-5,6,7,8-tetrahydropyrido[3,4-d]pyrimidine], the inhibition at 4 µM under setting [1] is at least 90%.

On to `COc1cc(C(=O)N2CCc3cnc(N4CCN(C5CCC5)CC4)nc3CC2)nc2ccccc12` [Compound 490, 2-(4-cyclobutylpiperazin-1-yl)-7-[(4-methoxyquinolin-2-yl)carbonyl]-6,7,8,9-tetrahydro-5H-pyrimido[4,5-d]azepine], for which, under setting [2], the inhibition at 4 µM was at least 90%.

For the molecule `CC(c1ccc(Cl)cc1Cl)N1CCc2c(ncnc2N2CCN(C3CCC3)CC2)C1` (stereo not drawn) [Compound 136, 4-(4-cyclobutylpiperazin-1-yl)-7-[1-(2,4-dichlorophenyl)ethyl]-5,6,7,8-tetrahydropyrido[3,4-d]pyrimidine], the inhibition at 4 µM under setting [1] was at least 90%.

Turning to `O=C(c1cccc(C(F)(F)F)c1Cl)N1CCc2cnc(N3CCN(C4CCC4)CC3)nc2CC1` [Compound 437, 7-[2-chloro-3-(trifluoromethyl)benzoyl]-2-(4-cyclobutylpiperazin-1-yl)-6,7,8,9-tetrahydro-5H-pyrimido[4,5-d]azepine], the inhibition at 4 µM under setting [2] is at least 90%.

As to `O=C(c1cccnc1Cl)N1CCc2cnc(N3CCN(C4CCC4)CC3)nc2CC1` [Compound 477, 7-[(2-chloropyridin-3-yl)carbonyl]-2-(4-cyclobutylpiperazin-1-yl)-6,7,8,9-tetrahydro-5H-pyrimido[4,5-d]azepine], under setting [2], the inhibition at 4 µM was at least 90%.

In the case of `O=C(c1cccc(Cl)c1Cl)N1CCc2cnc(N3CCN(C4CCC4)CC3)nc2CC1` [Compound 440, 2-(4-cyclobutylpiperazin-1-yl)-7-(2,3-dichlorobenzoyl)-6,7,8,9-tetrahydro-5H-pyrimido[4,5-d]azepine], under setting [2], the inhibition at 4 µM was at least 90%.

For the molecule `CCCN1CCc2nc(N3CCN(C4CCC4)CC3)ncc2C1` [Compound 627, 2-(4-cyclobutylpiperazin-1-yl)-6-propyl-5,6,7,8-tetrahydropyrido[4,3-d]pyrimidine], the inhibition at 4 µM under setting [1] was at least 90%.

With `O=C(c1cccnc1)N1CCc2c(ncnc2N2CCN(C3CCC3)CC2)C1` [Compound 34, 4-(4-cyclobutylpiperazin-1-yl)-7-(pyridin-3-ylcarbonyl)-5,6,7,8-tetrahydropyrido[3,4-d]pyrimidine], the inhibition at 4 µM under setting [1] was at least 90%.

Regarding `COc1cc(CC(=O)N2CCc3cnc(N4CCN(C5CCC5)CC4)nc3CC2)cc(OC)c1OC` [Compound 276, 2-(4-cyclobutylpiperazin-1-yl)-7-[(3,4,5-trimethoxyphenyl)acetyl]-6,7,8,9-tetrahydro-5H-pyrimido[4,5-d]azepine], the inhibition at 4 µM under setting [3] was at least 90%.

With `Cc1cc(C(=O)N2CCc3cnc(N4CCN(C5CCC5)CC4)nc3CC2)nn1C` [Compound 203, 2-(4-cyclobutylpiperazin-1-yl)-7-[(1,5-dimethyl-1H-pyrazol-3-yl)carbonyl]-6,7,8,9-tetrahydro-5H-pyrimido[4,5-d]azepine], the inhibition at 4 µM under setting [3] is at least 90%.

Turning to `Fc1ccccc1CN1CCc2ncnc(N3CCN(C4CCC4)CC3)c2CC1` [Compound 145, 4-(4-cyclobutylpiperazin-1-yl)-7-(2-fluorobenzyl)-6,7,8,9-tetrahydro-5H-pyrimido[4,5-d]azepine], the inhibition at 4 µM under setting [1] was at least 90%.

For `COc1ccccc1/C=C/C(=O)N1CCc2cnc(N3CCN(C4CCC4)CC3)nc2CC1` [Compound 568, 2-(4-cyclobutylpiperazin-1-yl)-7-[(2E)-3-(2-methoxyphenyl)prop-2-enoyl]-6,7,8,9-tetrahydro-5H-pyrimido[4,5-d]azepine], the inhibition at 4 µM under setting [2] is at least 90%.

With `O=C(c1ccc(F)c(F)c1)N1CCc2cnc(N3CCN(C4CCC4)CC3)nc2CC1` [Compound 390, 2-(4-cyclobutylpiperazin-1-yl)-7-(3,4-difluorobenzoyl)-6,7,8,9-tetrahydro-5H-pyrimido[4,5-d]azepine], the inhibition at 4 µM under setting [2] was at least 90%.

Regarding `CC(c1ccc(F)cc1)N1CCc2c(ncnc2N2CCN(C3CCC3)CC2)C1` (stereo not drawn) [Compound 104, 4-(4-cyclobutylpiperazin-1-yl)-7-[1-(4-fluorophenyl)ethyl]-5,6,7,8-tetrahydropyrido[3,4-d]pyrimidine], under setting [1], the inhibition at 4 µM is at least 90%.

As for `Cn1ccnc1CN1CCc2nc(N3CCN(C4CCC4)CC3)ncc2C1` [Compound 616, 2-(4-cyclobutylpiperazin-1-yl)-6-[(1-methyl-1H-imidazol-2-yl)methyl]-5,6,7,8-tetrahydropyrido[4,3-d]pyrimidine], the inhibition at 4 µM under setting [1] was at least 90%.

For the molecule `CC(C)CC(=O)N1CCc2c(ncnc2N2CCN(C3CCC3)CC2)C1` [Compound 45, 4-(4-cyclobutylpiperazin-1-yl)-7-(3-methylbutanoyl)-5,6,7,8-tetrahydropyrido[3,4-d]pyrimidine], under setting [1], the inhibition at 4 µM is at least 90%.

Take `CCOc1ccccc1/C=C/C(=O)N1CCc2cnc(N3CCN(C4CCC4)CC3)nc2CC1` [Compound 569, 2-(4-cyclobutylpiperazin-1-yl)-7-[(2E)-3-(2-ethoxyphenyl)prop-2-enoyl]-6,7,8,9-tetrahydro-5H-pyrimido[4,5-d]azepine]: under setting [2], the inhibition at 4 µM is at least 90%.

Take `O=C(c1ccc(OC(F)(F)F)cc1)N1CCc2cnc(N3CCN(C4CCC4)CC3)nc2CC1` [Compound 373, 2-(4-cyclobutylpiperazin-1-yl)-7-[4-(trifluoromethoxy)benzoyl]-6,7,8,9-tetrahydro-5H-pyrimido[4,5-d]azepine]: the inhibition at 4 µM under setting [3] was at least 90%.

On to `O=C(c1c(F)cccc1Cl)N1CCc2cnc(N3CCN(C4CCC4)CC3)nc2CC1` [Compound 433, 7-(2-chloro-6-fluorobenzoyl)-2-(4-cyclobutylpiperazin-1-yl)-6,7,8,9-tetrahydro-5H-pyrimido[4,5-d]azepine], for which the inhibition at 4 µM under setting [2] is at least 90%.

In the case of `C=CCSc1ncccc1C(=O)N1CCc2cnc(N3CCN(C4CCC4)CC3)nc2CC1` [Compound 499, 7-{[2-(allythio)pyridin-3-yl]carbonyl}-2-(4-cyclobutylpiperazin-1-yl)-6,7,8,9-tetrahydro-5H-pyrimido[4,5-d]azepine], the inhibition at 4 µM under setting [2] was at least 90%.

For the molecule `O=C(COc1ccccc1)N1CCc2cnc(N3CCN(C4CCC4)CC3)nc2CC1` [Compound 315, 2-(4-cyclobutylpiperazin-1-yl)-7-(phenoxyacetyl)-6,7,8,9-tetrahydro-5H-pyrimido[4,5-d]azepine], the inhibition at 4 µM under setting [3] was at least 90%.

As for `O=C(c1cncc(Br)c1)N1CCc2cnc(N3CCN(C4CCC4)CC3)nc2CC1` [Compound 481, 7-[(5-bromopyridin-3-yl)carbonyl]-2-(4-cyclobutylpiperazin-1-yl)-6,7,8,9-tetrahydro-5H-pyrimido[4,5-d]azepine], the inhibition at 4 µM under setting [2] was at least 90%.
